Tested on: MV-4-11 cells
Experiment: Gene expression microarray analysis (Affymetrix PrimeView) and GSEA
Assay type: cell-based, human
Parameters: RFU PODN (11730768_x_at) / Fold change /veh PODN (11730768_x_at) / RFU LINC00158 (11744669_a_at) / Fold change /veh LINC00158 (11744669_a_at) / RFU DUSP10 (11751237_a_at) / Fold change /veh DUSP10 (11751237_a_at) / RFU ID3 (11757404_x_at) / Fold change /veh ID3 (11757404_x_at) / RFU PLEKHG5 (11737974_s_at) / Fold change /veh PLEKHG5 (11737974_s_at) / RFU LRRC4B (11730491_at) / Fold change /veh LRRC4B (11730491_at) / RFU GIMAP4 (11747438_a_at) / Fold change /veh GIMAP4 (11747438_a_at) / RFU KRT8 (11758183_x_at) / Fold change /veh KRT8 (11758183_x_at) / RFU CNN1 (11734310_a_at) / Fold change /veh CNN1 (11734310_a_at) / RFU VPS37D (11726825_at) / Fold change /veh VPS37D (11726825_at) / RFU C10orf10 (11716522_x_at) / Fold change /veh C10orf10 (11716522_x_at) / RFU KIR2DL2 /// KIR2DL4 /// KIR2DL5A /// KIR2DL5B /// KIR2DS1 /// KIR2DS2 /// KIR2DS3 /// KIR2DS4 /// KIR3DL3 /// KIR3DL3 /// KIR3DS1 (11738374_at) / Fold change /veh KIR2DL2 /// KIR2DL4 /// KIR2DL5A /// KIR2DL5B /// KIR2DS1 /// KIR2DS2 /// KIR2DS3 /// KIR2DS4 /// KIR3DL3 /// KIR3DL3 /// KIR3DS1 (11738374_at) / RFU C1QL1 (11718748_at) / Fold change /veh C1QL1 (11718748_at) / RFU TMPRSS4 (11747572_a_at) / Fold change /veh TMPRSS4 (11747572_a_at) / RFU HAMP (11756126_x_at) / Fold change /veh HAMP (11756126_x_at) / RFU RNFT2 (11725882_a_at) / Fold change /veh RNFT2 (11725882_a_at) / RFU NR4A2 (11747474_a_at) / Fold change /veh NR4A2 (11747474_a_at) / RFU ABCC12 (11746883_a_at) / Fold change /veh ABCC12 (11746883_a_at) / RFU TMEM136 (11760407_x_at) / Fold change /veh TMEM136 (11760407_x_at) / RFU CLDN22 /// WWC2 (11732394_at) / Fold change /veh CLDN22 /// WWC2 (11732394_at) / RFU HLA-DPB1 (11760878_x_at) / Fold change /veh HLA-DPB1 (11760878_x_at) / RFU SPINT1 (11716480_a_at) / Fold change /veh SPINT1 (11716480_a_at) / RFU GAP43 (11754022_s_at) / Fold change /veh GAP43 (11754022_s_at) / RFU A4GNT (11735810_at) / Fold change /veh A4GNT (11735810_at) / RFU PRB3 (11715151_x_at) / Fold change /veh PRB3 (11715151_x_at) / RFU TUBB4B (11761932_at) / Fold change /veh TUBB4B (11761932_at) / RFU CAPN14 (11732068_a_at) / Fold change /veh CAPN14 (11732068_a_at) / RFU TMCC2 (11721928_a_at) / Fold change /veh TMCC2 (11721928_a_at) / RFU IRGQ (11745062_a_at) / Fold change /veh IRGQ (11745062_a_at) / RFU FAM174B (11720279_a_at) / Fold change /veh FAM174B (11720279_a_at) / RFU TMPRSS4 (11748680_a_at) / Fold change /veh TMPRSS4 (11748680_a_at) / RFU FAM212B (11763350_a_at) / Fold change /veh FAM212B (11763350_a_at) / RFU PLEKHG5 (11743358_a_at) / Fold change /veh PLEKHG5 (11743358_a_at) / RFU ZSCAN30 (11745921_a_at) / Fold change /veh ZSCAN30 (11745921_a_at) / RFU CMKLR1 (11741424_a_at) / Fold change /veh CMKLR1 (11741424_a_at) / RFU LOC101060620 /// MAPK8IP1 (11723275_at) / Fold change /veh LOC101060620 /// MAPK8IP1 (11723275_at) / RFU SPTSSB (11747773_x_at) / Fold change /veh SPTSSB (11747773_x_at) / RFU PRSS12 (11739890_at) / Fold change /veh PRSS12 (11739890_at) / RFU BIN1 (11741810_x_at) / Fold change /veh BIN1 (11741810_x_at) / RFU WNT11 (11732464_a_at) / Fold change /veh WNT11 (11732464_a_at) / RFU C10orf10 (11716521_a_at) / Fold change /veh C10orf10 (11716521_a_at) / RFU C5orf56 (11738089_at) / Fold change /veh C5orf56 (11738089_at) / RFU CYB561 (11721691_x_at) / Fold change /veh CYB561 (11721691_x_at) / RFU ANKRD19P (11752326_a_at) / Fold change /veh ANKRD19P (11752326_a_at) / RFU OR2T12 /// OR2T33 /// OR2T8 (11738714_s_at) / Fold change /veh OR2T12 /// OR2T33 /// OR2T8 (11738714_s_at) / RFU VCAN (11748164_a_at) / Fold change /veh VCAN (11748164_a_at) / RFU JSRP1 (11732532_at) / Fold change /veh JSRP1 (11732532_at) / RFU KRTAP10-11 (11738290_x_at) / Fold change /veh KRTAP10-11 (11738290_x_at) / RFU MYO3A (11730013_a_at) / Fold change /veh MYO3A (11730013_a_at) / RFU EBF3 (11725865_a_at) / Fold change /veh EBF3 (11725865_a_at) / RFU CAMK2N1 (11719241_x_at) / Fold change /veh CAMK2N1 (11719241_x_at) / RFU C5orf56 (11738088_a_at) / Fold change /veh C5orf56 (11738088_a_at) / RFU OLFML3 (11715873_a_at) / Fold change /veh OLFML3 (11715873_a_at) / RFU LOC100653217 /// NTM (11731650_a_at) / Fold change /veh LOC100653217 /// NTM (11731650_a_at) / RFU MAPK11 (11762145_a_at) / Fold change /veh MAPK11 (11762145_a_at) / RFU FIZ1 (11724087_x_at) / Fold change /veh FIZ1 (11724087_x_at) / RFU OASL (11726364_x_at) / Fold change /veh OASL (11726364_x_at) / RFU SOX15 (11748057_x_at) / Fold change /veh SOX15 (11748057_x_at) / RFU CD79A (11719716_a_at) / Fold change /veh CD79A (11719716_a_at) / RFU HIST1H1D (11736915_at) / Fold change /veh HIST1H1D (11736915_at) / RFU CASKIN2 (11723855_a_at) / Fold change /veh CASKIN2 (11723855_a_at) / RFU LOC730098 (11760151_x_at) / Fold change /veh LOC730098 (11760151_x_at) / RFU OR4N2 (11742367_at) / Fold change /veh OR4N2 (11742367_at) / RFU PRRT2 (11749266_a_at) / Fold change /veh PRRT2 (11749266_a_at) / RFU SNX32 (11753110_a_at) / Fold change /veh SNX32 (11753110_a_at) / RFU CDHR5 (11726645_a_at) / Fold change /veh CDHR5 (11726645_a_at) / RFU RCAN1 (11760418_a_at) / Fold change /veh RCAN1 (11760418_a_at) / RFU FAM167A (11723789_a_at) / Fold change /veh FAM167A (11723789_a_at) / RFU FAM26E (11764081_at) / Fold change /veh FAM26E (11764081_at) / RFU ISYNA1 (11749810_s_at) / Fold change /veh ISYNA1 (11749810_s_at) / RFU ACY1 (11761880_at) / Fold change /veh ACY1 (11761880_at) / RFU 11764098_at / Fold change /veh 11764098_at / RFU SAMD14 (11745864_x_at) / Fold change /veh SAMD14 (11745864_x_at) / RFU NPB (11741838_a_at) / Fold change /veh NPB (11741838_a_at) / RFU TMPRSS6 (11731388_a_at) / Fold change /veh TMPRSS6 (11731388_a_at) / RFU KRTAP10-2 (11738614_at) / Fold change /veh KRTAP10-2 (11738614_at) / RFU ARHGAP8 /// PRR5-ARHGAP8 (11727945_x_at) / Fold change /veh ARHGAP8 /// PRR5-ARHGAP8 (11727945_x_at) / RFU KRTAP5-7 /// NADSYN1 (11734609_at) / Fold change /veh KRTAP5-7 /// NADSYN1 (11734609_at) / RFU RASL12 (11751679_a_at) / Fold change /veh RASL12 (11751679_a_at) / RFU CDKN2B (11736163_a_at) / Fold change /veh CDKN2B (11736163_a_at) / RFU PRF1 (11729649_at) / Fold change /veh PRF1 (11729649_at) / RFU, ZNF638 /// ZNF638-IT1 / Fold change vs veh, ZNF638 /// ZNF638-IT1 / RFU, PANK3 / Fold change vs veh, PANK3 / RFU, SH3YL1 / Fold change vs veh, SH3YL1 / RFU, ZEB2 / Fold change vs veh, ZEB2 / RFU, NRIP1 / Fold change vs veh, NRIP1 / RFU, PTTG1IP / Fold change vs veh, PTTG1IP / RFU, CAPN2 / Fold change vs veh, CAPN2 / RFU, MED14 / Fold change vs veh, MED14 / RFU, SNORA58 / Fold change vs veh, SNORA58 / RFU, C1orf63 / Fold change vs veh, C1orf63 / RFU, LRRFIP1 / Fold change vs veh, LRRFIP1 / RFU, NDUFAF7 / Fold change vs veh, NDUFAF7 / RFU, SLC12A2 / Fold change vs veh, SLC12A2 / RFU, IBTK / Fold change vs veh, IBTK / RFU, ESF1 / Fold change vs veh, ESF1 / Fold change vs veh, TMEM50B / RFU, TAOK1 / Fold change vs veh, TAOK1 / RFU, ACBD3 / Fold change vs veh, ACBD3 / RFU, TMA16 / Fold change vs veh, TMA16 / RFU, RWDD3 / Fold change vs veh, RWDD3 / RFU, BCAT1 / Fold change vs veh, BCAT1 / RFU, EDEM3 / Fold change vs veh, EDEM3 / RFU, TMEM33 / Fold change vs veh, TMEM33 / RFU, WDR75 / Fold change vs veh, WDR75 / RFU, AHCTF1 / Fold change vs veh, AHCTF1 / RFU, TFRC / Fold change vs veh, TFRC / RFU, ZDHHC17 / Fold change vs veh, ZDHHC17 / RFU, NOM1 / Fold change vs veh, NOM1 / RFU, ARL8B / Fold change vs veh, ARL8B / RFU, ZBTB11 / Fold change vs veh, ZBTB11 / RFU, TAMM41 / Fold change vs veh, TAMM41 / RFU, KIAA1704 /// LOC100996395 / Fold change vs veh, KIAA1704 /// LOC100996395 / RFU, ING1 / Fold change vs veh, ING1 / RFU, TRMT61B / Fold change vs veh, TRMT61B / RFU, FUBP3 / Fold change vs veh, FUBP3 / RFU, TP53 / Fold change vs veh, TP53 / RFU, TNKS2 / Fold change vs veh, TNKS2 / RFU, ZFP14 / Fold change vs veh, ZFP14 / RFU, ACTR2 / Fold change vs veh, ACTR2 / RFU, PPP3R1 / Fold change vs veh, PPP3R1 / RFU, PIK3R1 / Fold change vs veh, PIK3R1 / RFU, HNRNPA1 / Fold change vs veh, HNRNPA1 / RFU, RNF170 / Fold change vs veh, RNF170 / RFU, ZNF28 / Fold change vs veh, ZNF28 / RFU, RNGTT / Fold change vs veh, RNGTT / RFU, OGT / Fold change vs veh, OGT / RFU, BRD1 / Fold change vs veh, BRD1 / RFU, MARS / Fold change vs veh, MARS / RFU, ZNF655 / Fold change vs veh, ZNF655 / RFU, FAHD1 / Fold change vs veh, FAHD1 / RFU, BDP1 / Fold change vs veh, BDP1 / RFU, LRRCC1 / Fold change vs veh, LRRCC1 / RFU, ARID1A / Fold change vs veh, ARID1A / RFU, ZNF146 / Fold change vs veh, ZNF146 / RFU, ZNF330 / Fold change vs veh, ZNF330 / RFU, GPN3 / Fold change vs veh, GPN3 / RFU, C9orf123 / Fold change vs veh, C9orf123 / RFU, N4BP2L2 / Fold change vs veh, N4BP2L2 / RFU, ARFIP1 / Fold change vs veh, ARFIP1 / RFU, FAM179B / Fold change vs veh, FAM179B / RFU, BCL10 / Fold change vs veh, BCL10 / RFU, UHRF1BP1L / Fold change vs veh, UHRF1BP1L / RFU, BET1 / Fold change vs veh, BET1 / RFU, CNOT2 / Fold change vs veh, CNOT2 / RFU, ZNF268 / Fold change vs veh, ZNF268 / Fold change vs veh, ZNF507 / RFU, DGCR2 / Fold change vs veh, DGCR2 / RFU, WDSUB1 / Fold change vs veh, WDSUB1 / Fold change vs veh, HSP90B1 /// MIR3652 / RFU, ADSS / Fold change vs veh, ADSS / RFU, GK / Fold change vs veh, GK / RFU, ZNF148 / Fold change vs veh, ZNF148 / RFU, TAF9 / Fold change vs veh, TAF9 / RFU, SLC1A5 / Fold change vs veh, SLC1A5 / RFU, SLMO2 / Fold change vs veh, SLMO2 / RFU, ABCC4 / Fold change vs veh, ABCC4 / RFU, LOC101060439 /// RAP1B / Fold change vs veh, LOC101060439 /// RAP1B / RFU, RFX7 / Fold change vs veh, RFX7 / RFU, GTPBP10 / Fold change vs veh, GTPBP10 / RFU, CNEP1R1 / Fold change vs veh, CNEP1R1 / RFU, BIVM-ERCC5 /// ERCC5 / Fold change vs veh, BIVM-ERCC5 /// ERCC5 / RFU, ILF3 / Fold change vs veh, ILF3 / RFU 11762660_at / Fold change /veh 11762660_at / RFU VCAN (11757783_s_at) / Fold change /veh VCAN (11757783_s_at) / RFU DDX43 (11728927_at) / Fold change /veh DDX43 (11728927_at) / RFU KRT8 (11758188_x_at) / Fold change /veh KRT8 (11758188_x_at) / RFU NKD1 (11759106_at) / Fold change /veh NKD1 (11759106_at) / RFU SRD5A1 (11742802_a_at) / Fold change /veh SRD5A1 (11742802_a_at) / RFU TPSAB1 /// TPSB2 (11721975_s_at) / Fold change /veh TPSAB1 /// TPSB2 (11721975_s_at) / RFU GSTM3 (11746129_a_at) / Fold change /veh GSTM3 (11746129_a_at) / RFU IL23R (11737362_x_at) / Fold change /veh IL23R (11737362_x_at) / RFU TMEM51 (11727254_a_at) / Fold change /veh TMEM51 (11727254_a_at) / RFU PIWIL2 (11732686_x_at) / Fold change /veh PIWIL2 (11732686_x_at) / RFU ORM1 (11744905_x_at) / Fold change /veh ORM1 (11744905_x_at) / RFU CCDC152 (11743942_at) / Fold change /veh CCDC152 (11743942_at) / RFU ECM1 (11717891_a_at) / Fold change /veh ECM1 (11717891_a_at) / RFU IL23R (11748794_a_at) / Fold change /veh IL23R (11748794_a_at) / RFU TNFAIP8L3 (11732012_x_at) / Fold change /veh TNFAIP8L3 (11732012_x_at) / RFU MBOAT4 (11741988_at) / Fold change /veh MBOAT4 (11741988_at) / RFU 11764193_at / Fold change /veh 11764193_at / RFU TMEM53 (11763286_at) / Fold change /veh TMEM53 (11763286_at) / RFU MAGEB2 (11727129_at) / Fold change /veh MAGEB2 (11727129_at) / RFU TMEM200A (11744735_a_at) / Fold change /veh TMEM200A (11744735_a_at) / RFU CCDC152 (11751479_a_at) / Fold change /veh CCDC152 (11751479_a_at) / RFU FAM211A (11726209_a_at) / Fold change /veh FAM211A (11726209_a_at) / RFU RGS16 (11746705_a_at) / Fold change /veh RGS16 (11746705_a_at) / RFU VCAN (11755009_s_at) / Fold change /veh VCAN (11755009_s_at) / RFU RHOB (11743442_s_at) / Fold change /veh RHOB (11743442_s_at) / RFU RGS16 (11720943_a_at) / Fold change /veh RGS16 (11720943_a_at) / RFU RGS16 (11720944_at) / Fold change /veh RGS16 (11720944_at) / RFU, VPS4B / Fold change vs veh, VPS4B / RFU, CREB1 / Fold change vs veh, CREB1 / RFU, DNAJC13 / Fold change vs veh, DNAJC13 / RFU, GNAQ / Fold change vs veh, GNAQ / RFU, CDK5R1 / Fold change vs veh, CDK5R1 / RFU, ZRANB3 / Fold change vs veh, ZRANB3 / RFU, CUL4A / Fold change vs veh, CUL4A / RFU, CCNY / Fold change vs veh, CCNY / RFU, UFL1 / Fold change vs veh, UFL1 / RFU, COG3 / Fold change vs veh, COG3 / RFU, DIAPH2 / Fold change vs veh, DIAPH2 / RFU, SKA2 / Fold change vs veh, SKA2 / RFU, AFF3 / Fold change vs veh, AFF3 / RFU, LMF1 / Fold change vs veh, LMF1 / RFU, IPO11 / Fold change vs veh, IPO11 / RFU, DFFB / Fold change vs veh, DFFB / RFU, FOXP1 / Fold change vs veh, FOXP1 / RFU, CARD8 / Fold change vs veh, CARD8 / RFU, STRN3 / Fold change vs veh, STRN3 / RFU, ADK / Fold change vs veh, ADK / RFU, RASSF2 / Fold change vs veh, RASSF2 / RFU, WIPF1 / Fold change vs veh, WIPF1 / RFU, LARP1B / Fold change vs veh, LARP1B / RFU, RASA1 / Fold change vs veh, RASA1 / RFU, RB1 / Fold change vs veh, RB1 / RFU, PPFIA1 / Fold change vs veh, PPFIA1 / RFU, MAT2A / Fold change vs veh, MAT2A / RFU, CCT5 / Fold change vs veh, CCT5 / RFU, WDR92 / Fold change vs veh, WDR92 / RFU, CUX1 / Fold change vs veh, CUX1 / RFU, TTC7A / Fold change vs veh, TTC7A / RFU, TMEM135 / Fold change vs veh, TMEM135 / RFU, DEPTOR / Fold change vs veh, DEPTOR / RFU, CPM / Fold change vs veh, CPM / RFU, DNAJB6 / Fold change vs veh, DNAJB6 / RFU, CACNA2D3 / Fold change vs veh, CACNA2D3 / RFU, DTX4 / Fold change vs veh, DTX4 / RFU, TFCP2 / Fold change vs veh, TFCP2 / RFU, GMCL1 /// GMCL1P1 / Fold change vs veh, GMCL1 /// GMCL1P1 / RFU, AEBP2 / Fold change vs veh, AEBP2 / RFU, SNHG1 /// SNORD22 /// SNORD25 /// SNORD26 /// SNORD27 /// SNORD28 /// SNORD29 /// SNORD31 / Fold change vs veh, SNHG1 /// SNORD22 /// SNORD25 /// SNORD26 /// SNORD27 /// SNORD28 /// SNORD29 /// SNORD31 / Fold change (Aza/veh), C12orf56 (ProbeSet 11735607_a_at) / Fold change (ACY-1035/veh), C12orf56 (ProbeSet 11735607_a_at) / Fold change (Aza/veh), FGFR1OP (ProbeSet 11751329_s_at) / Fold change (ACY-1035/veh), FGFR1OP (ProbeSet 11751329_s_at) / Fold change (Aza/veh), VPS36 (ProbeSet 11739960_a_at) / Fold change (ACY-1035/veh), VPS36 (ProbeSet 11739960_a_at) / RFU SYPL1 (11715823_x_at) / Fold change /veh SYPL1 (11715823_x_at) / RFU IGFBP7 (11715501_s_at) / Fold change /veh IGFBP7 (11715501_s_at) / RFU REEP3 (11722064_at) / Fold change /veh REEP3 (11722064_at) / RFU IGLL1 (11728026_x_at) / Fold change /veh IGLL1 (11728026_x_at): dose or concentration left out as unconfirmed
Details: ProbeSet 11716865_a_at; LIST B

SMILES: Nc1ccc(-c2cccs2)cc1NC(=O)c1ccc2c(c1)cc(C1CC1)n2CCN1CCOCC1 [ACY-1035]
- Fold change vs veh, SLC1A5: 0.85

— PMC5218480 (PLoS ONE, 2017)
